Laboratory results as given in the NIST ThermoML archive (doi:10.1021/je049909d).

Legend:
[1] = Liquid; for mass density / speed of sound: 298.15 K, 101.33 kPa; for speed of sound: Sing-around technique in a fixed-path interferometer
[2] = refractive index (Na D-line) (dimensionless); conditions: 298.15 K; 101.33 kPa; Liquid; Standard Abbe refractometry
[3] = xn = mol fraction of the nth substance listed; conditions: 298.15 K, 101.3 kPa, Liquid; for speed of sound: Sing-around technique in a fixed-path interferometer
[4] = refractive index (Na D-line) (dimensionless); xn = mol fraction of the nth substance listed; conditions: 298.15 K, 101.3 kPa, Liquid, Standard Abbe refractometry

CO [methanol]
Conditions	mass density [kg/m3]	refractive index	speed of sound [m/s]
[1]	786.56	–	1101.8
[2]	–	1.32634	–

Conditions	vapor or sublimation pressure [kPa]
[1], 337.9 K	101.3

C=COC(C)=O [vinyl acetate]
Conditions	mass density [kg/m3]	refractive index	speed of sound [m/s]
[1]	925.59	–	1115.6
[2]	–	1.39253	–

Conditions	vapor or sublimation pressure [kPa]
[1], 346.1 K	101.3

C=COC(=O)CC [vinyl propanoate]
Conditions	mass density [kg/m3]	refractive index	speed of sound [m/s]
[1]	909.69	–	1133.9
[2]	–	1.40153	–

[1], Ebulliometric method (Recirculating still)
Conditions	vapor or sublimation pressure [kPa]
320.7 K	17.5
325.3 K	21.5
329.4 K	25.5
333 K	29.5
336.3 K	33.5
339.3 K	37.5
341.9 K	41.5
344.4 K	45.5
346.8 K	49.5
348.9 K	53.5
350.9 K	57.5
352.8 K	61.5
354.7 K	65.5
356.3 K	69.5
358 K	73.5
359.6 K	77.5
361.1 K	81.5
362.6 K	85.5
364 K	89.5
365.4 K	93.5
366.7 K	97.5
368 K	101.3
368.1 K	101.3

C=COC(=O)CC [vinyl propanoate] + C=COC(C)=O
Conditions	mass density, [3] [kg/m3]	refractive index, [4]	speed of sound, [3] [m/s]
x2 = 0.05	910.31	1.40114	1132.8
x2 = 0.102	911.01	1.4007	1131.8
x2 = 0.167	911.87	1.40017	1130.5
x2 = 0.207	912.4	1.39986	1129.7
x2 = 0.264	913.2	1.39937	1128.6
x2 = 0.297	913.66	1.39906	1128
x2 = 0.354	914.5	1.3985	1126.9
x2 = 0.403	915.25	1.39817	1126
x2 = 0.466	916.22	1.39762	1124.9
x2 = 0.504	916.8	1.3973	1124.2
x2 = 0.545	917.48	1.3969	1123.4
x2 = 0.601	918.39	1.3964	1122.4
x2 = 0.65	919.18	1.39591	1121.6
x2 = 0.696	919.96	1.39554	1120.8
x2 = 0.753	920.95	1.39493	1119.8
x2 = 0.8	921.79	1.39456	1119
x2 = 0.839	922.51	1.3941	1118.3
x2 = 0.901	923.67	1.39358	1117.2
x2 = 0.955	924.72	1.39295	1116.3

C=COC(=O)CC [vinyl propanoate] + CO
Conditions	mass density, [3] [kg/m3]	refractive index, [4]	speed of sound, [3] [m/s]
x2 = 0.05	907.45	1.40022	1132.9
x2 = 0.101	905	1.39881	1131.7
x2 = 0.168	901.52	1.3968	1130.2
x2 = 0.198	899.81	1.39573	1129.5
x2 = 0.242	897.25	1.39416	1128.4
x2 = 0.311	892.66	1.39141	1126.7
x2 = 0.337	890.92	1.39039	1126
x2 = 0.39	886.94	1.38789	1124.6
x2 = 0.452	881.8	1.38474	1122.8
x2 = 0.526	874.78	1.38044	1120.5
x2 = 0.547	872.66	1.37911	1119.8
x2 = 0.597	867.2	1.37583	1118
x2 = 0.657	859.7	1.37115	1115.9
x2 = 0.708	852.65	1.36685	1114.1
x2 = 0.748	846.29	1.36283	1112.6
x2 = 0.8	837.26	1.35725	1110.7
x2 = 0.85	827.36	1.3512	1108.7
x2 = 0.899	816.21	1.34444	1106.5
x2 = 0.949	803.01	1.33649	1104.9
